Data: US11278526B2, “Compounds and methods for treating lupus” (RECEPTOS LLC, priority 2016, dated 2022)
Read-outs that look alike come from different tables or passages of the source.

Experiments:
NZBWF1 mice [1] = experiment: Survival in NZBWF1 SLE mouse model; type: in vivo; details: cyclophosphamide 50 mg/kg IP once a week (compound 5 study), Logrank p=0.0017
Method: As in Example 2, compound 5 was tested for efficacy in the same NZB×NZW F1 (“NZBWF1”) mouse model for SLE as compound 148. Six groups of NZBWF1 mice (Jackson Laboratories, stock #100008) were used in the study and were acclimated to the research facility for 6 weeks prior to the start of the study. Weekly measurements of proteinuria (excess serum proteins present in the urine) and body weight began at 20 weeks of age. At 22 weeks of age, the mice were assigned to groups in a balanced manner in order to achieve average body weight and average proteinuria measurements across the groups. One “naive” group consisting of 10 mice was euthanized at the start of treatment and used as a source of tissue for analysis. Treatment began at 22 weeks of age.
The five treatment groups were administered cyclophosphamide (positive control, 20 mice; introduced gradually to reduce toxicity (IP, once a week, 10 mg/kg at Weeks 22 and 23 and 50 mg/kg from Week 24 to the end of the study)), vehicle (negative control, 20 mice), or compound 5 (three groups of 20 mice), beginning at 22 weeks of age and observed over the course of 20 weeks. The three groups dosed with compound 5 received 0.3, 1.0, and 3.0 mg/kg PO QD, respectively (20 mice per dosage). Surviving animals were sacrificed at 42 weeks. […] Disease development was evaluated as disclosed in the following examples.

[2] = NZBWF1 mice, cyclophosphamide IP once a week
Method: Compound 148 was tested for efficacy in an art-accepted mouse model for SLE: NZB×NZW F1 (“NZBWF1”) mice develop an autoimmune disease closely resembling SLE. These mice spontaneously produce high levels of anti-dsDNA antibodies, an indicator of SLE, starting after 20 weeks of age. These mice develop hemolytic anemia, proteinuria, and progressive glomerulonephritis mediated by immune complex deposition in the glomerular basement membrane.
Six groups of NZBWF1 mice (Jackson Laboratories, stock #100008) were used in the study and were acclimated to the research facility for 7 weeks prior to the start of the study. Weekly measurements of proteinuria (excess serum proteins present in the urine) and body weight began at 20 weeks of age. At 23 weeks of age, the mice were assigned to groups in a balanced manner in order to achieve average body weight and average proteinuria measurements across the groups. […]
The three groups dosed with compound 148 received 0.3, 1.0, and 3.0 mg/kg PO QD, respectively (20 mice per dosage). […] Disease development was evaluated as disclosed in the following examples. […]
The three groups dosed with compound 5 received 0.3, 1.0, and 3.0 mg/kg PO QD, respectively (20 mice per dosage). […] Disease development was evaluated as disclosed in the following examples.

NZBWF1 mice [3] = experiment: Proteinuria scores (urine dip sticks) in NZBWF1 SLE mouse model; type: in vivo
From the text: Six groups of NZBWF1 mice (Jackson Laboratories, stock #100008) were used in the study and were acclimated to the research facility for 7 weeks prior to the start of the study. Weekly measurements of proteinuria (excess serum proteins present in the urine) and body weight began at 20 weeks of age. At 23 weeks of age, the mice were assigned to groups in a balanced manner in order to achieve average body weight and average proteinuria measurements across the groups. One “naive” group consisting of 10 mice was euthanized at the start of treatment and used as a source of tissue for analysis. Treatment began at 23 weeks of age.
The three groups dosed with compound 148 received 0.3, 1.0, and 3.0 mg/kg PO QD, respectively (20 mice per dosage). Surviving animals were sacrificed at 42 weeks. […] Disease development was evaluated as disclosed in the following examples.
High levels of proteinuria are a strong indicator of SLE. […] Proteinuria was expressed as a score from 0 to 4 (0=no protein; 1=traces of protein (<30 mg/dL); 2=30-100 mg/dL; 3=100-500 mg/dL; 4=>500 mg/dL).
As in Example 3, proteinuria was measured weekly beginning at 20 weeks using urine dip sticks (Roche Diagnostics Chemstrip 2GP, cat. no. 11895397160, per manufacturer's protocol). Proteinuria was expressed as a score from 0 to 4 (0=no protein; 1=traces of protein (<30 mg/dL); 2=30-100 mg/dL; 3=100-500 mg/dL; 4=>500 mg/dL). […] (In this and the following experiments, the number of mice per group was approximately 20, and statistics were determined by one-way ANOVA with Dunnett's comparison.)

NZBWF1 mice [4] = experiment: Kidney weight at termination (42 weeks); type: in vivo
From the text: In SLE, inflammatory infiltrates known as Tertiary Lymphatic Tissue (TLT) accumulate in the kidney and spleen, among other tissues. As an indirect measure of disease progression, right and left kidneys were weighed (FIGS. 4A-4B) following termination at 42 weeks.
As in Example 5, left kidneys were weighed (FIG. 43) following termination at 42 weeks.

splenocytes = experiment: Splenocyte counts and immunophenotyping of spleen cell subtypes; type: in vivo, mice; details: mouse, in vivo
Method: To determine the effects of compound 148 on inflammatory infiltrate in the spleen, spleens were weighed at 42 weeks. […] Splenocyte suspensions were then prepared. RBCs were lysed and splenocytes were counted.
Plasmacytoid dendritic cells (pDC) express IFNAR1 (Interferon alpha receptor 1), which amplifies the proinflammatory response to type 1 interferons (e.g., IFNα) that are associated with lupus. IFNAR activity is considered to be an important modulator of signal strength and duration in pDC and subsequent activation of T and B cells in the inflammatory response. pDC counts were measured at termination.
To determine the effects of compound 5 on inflammatory infiltrate in the spleen, spleens were weighed at 42 weeks. […] Splenocyte suspensions were prepared for all three doses. RBCs were lysed and splenocytes were counted.

NZBWF1 mice [5] = experiment: Serum blood urea nitrogen (BUN) at termination; type: in vivo
Method: Lymphocyte counts were measured from whole blood taken at 23, 31, and 36.5 weeks using flow cytometry. Cells were gated for CD4+ T cells, CD8+ T cells, and CD19+ B cells. […] Serum blood urea nitrogen (BUN) was also measured at termination to assess kidney function.
As in Example 4, serum blood urea nitrogen (BUN) was measured at termination to assess kidney function.

[6] = cyclophosphamide 50 mg/kg IP once a week (compound 5 study)
[7] = cyclophosphamide 50 mg/kg IP once a week (compound 148 study), p<0.05

O=P1(N(CCCl)CCCl)NCCCO1 (stereo not shown) [cyclophosphamide, reference compound]
Survival compared to vehicle (NZBWF1 mice [1]): improved survival compared to vehicle treated animals | Body weight ([2]; 50 mg/kg from week 24 (compound 5 study)): increased body weights | Body weight ([2]; 50 mg/kg from week 25 (compound 148 study)): increased body weights | Proteinuria scores relative to vehicle (NZBWF1 mice [3]; [6]): significant improvement relative to vehicle | Proteinuria scores relative to vehicle (NZBWF1 mice [3]; [7]): significant improvement relative to vehicle | Left kidney weight relative to vehicle (NZBWF1 mice [4]; [6]): significantly reduced kidney weight relative to vehicle | Kidney weight relative to vehicle (NZBWF1 mice [4]; [7]): significantly reduced kidney weight relative to vehicle | Decrease of splenic pDC counts relative to vehicle (splenocytes): 47% | Percent Reduction vs Vehicle: Activated CD4 + T cells (splenocytes): 89% | Percent Reduction vs Vehicle: CD4 + T cells (splenocytes): 77% | Percent Reduction vs Vehicle: CD8 + T cells (splenocytes): 48% | Percent Reduction vs Vehicle: CD11b + Ly6C^hi monocytes (splenocytes): 25% | Percent Reduction vs Vehicle: CD19 + B cells (splenocytes): 91% | Percent Reduction vs Vehicle: Follicular B cells (splenocytes): 93% | Percent Reduction vs Vehicle: Germinal Center B cells (splenocytes): 99% | Percent Reduction vs Vehicle: Marginal Zone B cells (splenocytes): 57% | Percent Reduction vs Vehicle: Marginal Zone Progenitor B cells (splenocytes): 78% | Percent Reduction vs Vehicle: Naive CD4 + T cells (splenocytes): 45% | Percent Reduction vs Vehicle: Plasma cells (splenocytes): 90% | Percent Reduction vs Vehicle: Tfh cells (splenocytes): 97% | Percent Reduction vs Vehicle: Total splenocytes (splenocytes): 73% | Percent Reduction vs Vehicle: Treg cells (splenocytes): 80% | Percent Reduction vs Vehicle: pDC (splenocytes): 64% | Reduction in splenic CD4+ T cell population (splenocytes): 84% | Reduction in splenic CD8+ T cell population (splenocytes): 46% | Reduction in splenic CD19+ B cell population (splenocytes): 92% | Reduction in splenic Follicular (FO) B cells (splenocytes): 96% | Reduction in splenic Germinal Center (GC) B cell population (splenocytes): 99% | Reduction in splenic Marginal Zone (MZ) B cell population (splenocytes): 74% | Reduction in splenic activated CD4+ T cell population (splenocytes): 93% | Reduction in splenic naïve CD4+ T cells (splenocytes): 47% | Reduction in splenic plasma cell population (splenocytes): 18% | Serum BUN at termination vs vehicle (NZBWF1 mice [5]; [6]): significant reduction in serum BUN | Serum BUN at termination vs vehicle (NZBWF1 mice [5]; [7]): significant reduction in serum BUN
